Patent US20210164015A1, “ANTIMICROBIAL SUSCEPTIBILITY TESTING USING MICRODROPLETS” (Becton, Dickinson and Company, priority 2018, published 2021)

System: E. coli
Experiment: microdroplet antibiotic susceptibility testing (AST) using a fluorescent viability indicator
Assay type: cell-based
Conditions: for fluorescence intensity of microdroplets (fluorescent viability indicator): E. coli encapsulated in microdroplets
Text: FIGS. 3A-3D depict results of an embodiment of microdroplet antibiotic susceptibility testing using a fluorescent viability indicator. FIG. 3A depicts change in fluorescent intensity in microdroplets at 1-hour, 2-hour, and 3-hour time points in samples without antibiotic (condition A) and samples with antibiotic at two times MIC (condition B). FIG. 3B depicts micrographs of microdroplets under the conditions of FIG. 3A.
Some embodiments provided herein relate to a first mode for determining microbial viability. A first mode for determining microbial viability is schematically depicted in FIG. 1. As described herein, a first mode for determining microbial viability includes providing a sample having microbes therein, dividing the sample into a number of portions, preparing microdroplets encapsulating microbes from the sample, either before or after the portions are formed (FIG. 1 depicts forming portions first), contacting each portion to a different concentration of an antimicrobial of interest either before or after preparing the microdroplets (FIG. 1 depicts adding an antibiotic prior to forming microdroplets), and measuring viability of the microbes by measuring a signal of microbial viability. Measuring a signal of microbial viability may be performed by obtaining a measure of microbial viability from a discrete subset of microdroplets, or a plurality of discrete subsets of microdroplets, from a population of microdroplets. The results for the measurements from discrete subsets of microdroplets at a first time point can then be combined to generate a result for the portion of the sample from which the microdroplet(s) were taken at this first time point. This process can be repeated at additional time points to determine microbial viability in that portion over time, thereby determining the susceptibility of the microbe to a given concentration of antimicrobial. Typically, it is not necessary to measure the exact same population of microdroplets at the first and subsequent time points, as long as the population of microdroplets measured at each time point are representative of the portion of the sample from which they are taken. The results from the various portions exposed to different concentrations of antimicrobial can then be used to determine the susceptibility of the microbe to the antimicrobial. […] Conversely, an increase in the measure of microbial viability over time indicates growth of microbes in the concentration of antimicrobial present in the portion of the sample from which the measurements were made. A minimum inhibitory concentration can be determined utilizing the results of antimicrobial susceptibility and/or microbe growth from the several portions of the sample exposed to different concentrations of antimicrobial. […]

CC1(C)S[C@@H]2[C@H](NC(=O)[C@H](N)c3ccccc3)C(=O)N2[C@H]1C(=O)O [ampicillin]
fluorescence intensity of microdroplets (fluorescent viability indicator) (antibiotic at 2×MIC (Condition B), 1 hour incubation (t1)): remained low
fluorescence intensity of microdroplets (fluorescent viability indicator) (antibiotic at 2×MIC (Condition B), 2 hours and 3 hours incubation (t2, t3)): remained low
E. coli growth in microdroplets (antibiotic at 2×MIC (Condition B), 2 hours and 3 hours, inferred from fluorescence intensity): no E. coli growth
presence of E. coli in micrographs of microdroplets (FIG. 3D) (microdroplets exposed to antibiotic at 2×MIC (Condition B)): no E. coli is present
